Reference: patent publication US11046716B2, “Beta-lactamase inhibitors” (priority 2015, dated 2021)

Key:
[1] = tested on: P. aeruginosa expressing the Class B carbapenemase VIM-2; test: Broth microdilution MIC assay with meropenem, P. aeruginosa VIM-2; format: cell-based; conditions: Fixed Mero (meropenem) 4 μg/mL; P. aerug. 2775 VIM-2
How it was run: (§1)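 Potentiation format: the β-lactam was held at 4 μg/ml while the test compound was serially diluted, and growth was scored visually after overnight (16-20 h) incubation at 37° C.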

[2] = tested on: K. pneumoniae expressing the class A carbapenemase KPC-2 and the class B carbapenemase VIM-4; test: Broth microdilution MIC assay with meropenem, K. pneumoniae KPC-2 and VIM-4; format: cell-based; conditions: Fixed Mero (meropenem) 4 μg/mL; K. p. A-1797 KPC-2 VIM-4
How it was run: as §1

[3] = target: T1, SHV-5 (Klebsiella pneumoniae, UniProt P0A3M1); test: β-lactamase enzyme inhibition assay, SHV-5 (cefotaxime substrate); format: biochemical
T1 construct: made in house; host or cells: E. coli BL21(DE3)
How it was run: (§2)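 Read-out is the rate of β-lactam ring hydrolysis monitored by absorbance: 300 nm for imipenem with KPC-2 and 260 nm for cefotaxime with SHV-5. Recombinant native enzymes were first incubated with compound at 37 °C for 15 min. The IC50 is the inhibitor concentration that halves the initial hydrolysis rate.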

[4] = tested on: K. pneumoniae producing the Class D carbapenemase OXA-48; test: Broth microdilution MIC assay with meropenem, K. pneumoniae OXA-48; format: cell-based; conditions: Fixed Mero (meropenem) 4 μg/mL; K. p. 11978 OXA-48
How it was run: as §1

[5] = tested on: K. pneumoniae expressing the Class A carbapenemase KPC-2; test: Broth microdilution MIC assay with meropenem, K. pneumoniae KPC-2; format: cell-based; conditions: Fixed Mero (meropenem) 4 μg/mL; K. p. 156319 KPC-3
How it was run: as §1

[6] = target: T2, KPC-2 (Klebsiella pneumoniae, UniProt Q9F663); test: β-lactamase enzyme inhibition assay, KPC-2 (imipenem substrate); format: biochemical; conditions: Class A; imipenem substrate, 300 nm; read-out: KPC-2
T2 construct: made in house; host or cells: E. coli BL21(DE3)
How it was run: as §2

[7] = tested on: E. cloacae expressing the Class C P99; test: Broth microdilution MIC assay with ceftazidime, E. cloacae P99; format: cell-based; conditions: Fixed CAZ (ceftazidime) 4 μg/mL; E. cl. 144200 p99 AmpC
How it was run: as §1

[8] = tested on: E. coli expressing the Class A Extended Spectrum Beta-Lactamase (ESBL) CTX-M-15; test: Broth microdilution MIC assay with ceftazidime, E. coli CTX-M-15; format: cell-based; conditions: Fixed CAZ (ceftazidime) 4 μg/mL; E. coli ESBL4 CTX-M-15
How it was run: as §1

[9] = target: OXA-48 (UniProt Q6XEC0); test: β-lactamase enzyme inhibition assay, Class D oxacillinase; format: biochemical; conditions: read-out: OXA-48
[10] = target: T3, AmpC (Enterobacter cloacae, UniProt P05364); test: β-lactamase enzyme inhibition assay, p99 AmpC (nitrocefin substrate); format: biochemical
T3 construct: made in house; host or cells: E. coli BL21(DE3)
How it was run: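 Read-out is the rate of β-lactam ring hydrolysis monitored by absorbance. Recombinant native enzymes were first incubated with compound at 37 °C for 15 min. The IC50 is the inhibitor concentration that halves the initial hydrolysis rate.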

[11] = target: T4, VIM-2 (Escherichia coli, UniProt Q5U7L7); test: β-lactamase enzyme inhibition assay, VIM-2 (nitrocefin substrate); format: biochemical; conditions: Class B; nitrocefin substrate, 486 nm; read-out: VIM-2
T4 construct: made in house; host or cells: E. coli BL21(DE3)
How it was run: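 IC50 reflects the inhibitor concentration cutting the initial nitrocefin hydrolysis rate by half, compared with control wells lacking inhibitor. Substrate was used at 100 μM final after a 15 min, 37 °C enzyme–inhibitor preincubation.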

T3 sequence (P05364 21-381): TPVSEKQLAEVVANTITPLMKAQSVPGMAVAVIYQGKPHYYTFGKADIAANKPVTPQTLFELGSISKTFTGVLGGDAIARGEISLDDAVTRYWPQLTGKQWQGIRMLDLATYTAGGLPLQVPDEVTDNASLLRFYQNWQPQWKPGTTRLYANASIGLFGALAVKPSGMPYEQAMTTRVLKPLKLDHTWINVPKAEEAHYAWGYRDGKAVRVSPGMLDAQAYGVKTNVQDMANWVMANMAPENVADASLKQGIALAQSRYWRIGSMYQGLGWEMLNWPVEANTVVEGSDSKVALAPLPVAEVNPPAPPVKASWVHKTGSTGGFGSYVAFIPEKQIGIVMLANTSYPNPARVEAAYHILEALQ
T2 sequence (Q9F663 25-293, looked up): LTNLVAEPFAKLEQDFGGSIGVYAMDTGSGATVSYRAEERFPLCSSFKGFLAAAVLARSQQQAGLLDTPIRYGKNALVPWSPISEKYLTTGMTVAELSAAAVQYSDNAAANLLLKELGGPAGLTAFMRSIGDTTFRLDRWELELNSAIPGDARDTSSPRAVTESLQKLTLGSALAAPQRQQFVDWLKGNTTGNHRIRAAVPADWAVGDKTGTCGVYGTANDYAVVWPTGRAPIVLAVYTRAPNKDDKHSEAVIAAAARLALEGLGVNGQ
T1 sequence (P0A3M1 22-286): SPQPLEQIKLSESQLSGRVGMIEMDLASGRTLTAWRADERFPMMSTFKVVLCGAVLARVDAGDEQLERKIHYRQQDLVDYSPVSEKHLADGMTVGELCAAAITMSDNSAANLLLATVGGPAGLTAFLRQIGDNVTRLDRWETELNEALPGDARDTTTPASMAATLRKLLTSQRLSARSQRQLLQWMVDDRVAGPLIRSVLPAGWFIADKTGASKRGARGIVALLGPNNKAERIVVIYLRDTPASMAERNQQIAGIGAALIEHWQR

Structure (SMILES) | MIC (μg/mL) of Exemplary Compounds in presence of fixed β-lactams: P. aerug. 2775 VIM-2 [1] | MIC (μg/mL) of Exemplary Compounds in presence of fixed β-lactams: K. p. A-1797 KPC-2 VIM-4 [2] | IC50 [3] [nM] | MIC (μg/mL) of Exemplary Compounds in presence of fixed β-lactams: K. p. 11978 OXA-48 [4] | MIC (μg/mL) of Exemplary Compounds in presence of fixed β-lactams: K. p. 156319 KPC-3 [5] | IC50 [6] [nM] | MIC (μg/mL) of Exemplary Compounds in presence of fixed β-lactams: E. cl. 144200 p99 AmpC [7] | MIC (μg/mL) of Exemplary Compounds in presence of fixed β-lactams: E. coli ESBL4 CTX-M-15 [8] | IC50 [9] [nM] | IC50 [10] [nM] | IC50 [11] [nM]
O=C(Cn1cc(CNCCO)nn1)N[C@H]1Cc2cccc(C(=O)O)c2OB1O [Example 21, (R)-2-hydroxy-3-(2-(4-(((2-hydroxyethyl)amino)methyl)-1H-1,2,3-triazol-1-yl)acetamido)-3,4-dihydro-2H-benzo[e][1,2]oxaborinine-8-carboxylic acid] | B (B represents an MIC between 1 and 16 μg/mL inclusive) | B (B represents an MIC between 1 and 16 μg/mL inclusive) | < 100 | B (B represents an MIC between 1 and 16 μg/mL inclusive) | B (B represents an MIC between 1 and 16 μg/mL inclusive) | < 100 | C (C represents an MIC of <1 μg/mL) | C (C represents an MIC of <1 μg/mL) | 100 to 1000 | < 100 | < 100
NCc1cn(CCC(=O)N[C@H]2Cc3cccc(C(=O)O)c3OB2O)nn1 [Example 30, (R)-3-(3-(4-(aminomethyl)-1H-1,2,3-triazol-1-yl)propanamido)-2-hydroxy-3,4-dihydro-2H-benzo[e][1,2]oxaborinine-8-carboxylic acid] | B (B represents an MIC between 1 and 16 μg/mL inclusive) | B (B represents an MIC between 1 and 16 μg/mL inclusive) | < 100 | B (B represents an MIC between 1 and 16 μg/mL inclusive) | C (C represents an MIC of <1 μg/mL) | < 100 | C (C represents an MIC of <1 μg/mL) | C (C represents an MIC of <1 μg/mL) | 100 to 1000 | < 100 | 100 to 1000
NCc1nc(CC(=O)N[C@H]2Cc3cccc(C(=O)O)c3OB2O)cs1 [Example 19, (R)-3-(2-(2-(aminomethyl)thiazol-4-yl)acetamido)-2-hydroxy-3,4-dihydro-2H-benzo[e][1,2]oxaborinine-8-carboxylic acid] | C (C represents an MIC of <1 μg/mL) | B (B represents an MIC between 1 and 16 μg/mL inclusive) | < 100 | B (B represents an MIC between 1 and 16 μg/mL inclusive) | B (B represents an MIC between 1 and 16 μg/mL inclusive) | < 100 | C (C represents an MIC of <1 μg/mL) | C (C represents an MIC of <1 μg/mL) | < 100 | < 100 | 100 to 1000
O=C(Cn1cc(C(=O)NC2CNC2)nn1)N[C@H]1Cc2cccc(C(=O)O)c2OB1O [Example 88, (R)-3-(2-(4-(azetidin-3-ylcarbamoyl)-1H-1,2,3-triazol-1-yl)acetamido)-2-hydroxy-3,4-dihydro-2H-benzo[e][1,2]oxaborinine-8-carboxylic acid] | C (C represents an MIC of <1 μg/mL) | C (C represents an MIC of <1 μg/mL) | 100 to 1000 | B (B represents an MIC between 1 and 16 μg/mL inclusive) | B (B represents an MIC between 1 and 16 μg/mL inclusive) | < 100 | C (C represents an MIC of <1 μg/mL) | C (C represents an MIC of <1 μg/mL) | 1000 to 10000 | < 100 | < 100
N[C@H]1CCN(C(=O)c2cn(CC(=O)N[C@H]3Cc4cccc(C(=O)O)c4OB3O)nn2)C1 [Example 66, (R)-3-(2-(4-((S)-3-aminopyrrolidine-1-carbonyl)-1H-1,2,3-triazol-1-yl)acetamido)-2-hydroxy-3,4-dihydro-2H-benzo[e][1,2]oxaborinine-8-carboxylic acid] | C (C represents an MIC of <1 μg/mL) | B (B represents an MIC between 1 and 16 μg/mL inclusive) | < 100 | B (B represents an MIC between 1 and 16 μg/mL inclusive) | C (C represents an MIC of <1 μg/mL) | < 100 | C (C represents an MIC of <1 μg/mL) | C (C represents an MIC of <1 μg/mL) | 100 to 1000 | < 100 | < 100
NCC(O)Cc1cn(CC(=O)N[C@H]2Cc3cccc(C(=O)O)c3OB2O)nn1 (stereo partly drawn) [Example 92, (3R)-3-(2-(4-(3-amino-2-hydroxypropyl)-1H-1,2,3-triazol-1-yl)acetamido)-2-hydroxy-3,4-dihydro-2H-benzo[e][1,2]oxaborinine-8-carboxylic acid] | C (C represents an MIC of <1 μg/mL) | B (B represents an MIC between 1 and 16 μg/mL inclusive) | 100 to 1000 | B (B represents an MIC between 1 and 16 μg/mL inclusive) | C (C represents an MIC of <1 μg/mL) | < 100 | C (C represents an MIC of <1 μg/mL) | C (C represents an MIC of <1 μg/mL) | 1000 to 10000 | < 100 | < 100
NCC(=O)NCc1cn(CC(=O)N[C@H]2Cc3cccc(C(=O)O)c3OB2O)nn1 [Example 76, (R)-3-(2-(4-((2-aminoacetamido)methyl)-1H-1,2,3-triazol-1-yl)acetamido)-2-hydroxy-3,4-dihydro-2H-benzo[e][1,2]oxaborinine-8-carboxylic acid] | C (C represents an MIC of <1 μg/mL) | B (B represents an MIC between 1 and 16 μg/mL inclusive) | < 100 | B (B represents an MIC between 1 and 16 μg/mL inclusive) | C (C represents an MIC of <1 μg/mL) | 100 to 1000 | C (C represents an MIC of <1 μg/mL) | C (C represents an MIC of <1 μg/mL) | 100 to 1000 | < 100 | < 100
NCCc1nnnn1CC(=O)N[C@H]1Cc2cccc(C(=O)O)c2OB1O [Example 102, (R)-3-(2-(5-(2-aminoethyl)-1H-tetrazol-1-yl)acetamido)-2-hydroxy-3,4-dihydro-2H-benzo[e][1,2]oxaborinine-8-carboxylic acid] | C (C represents an MIC of <1 μg/mL) | B (B represents an MIC between 1 and 16 μg/mL inclusive) | 100 to 1000 | B (B represents an MIC between 1 and 16 μg/mL inclusive) | B (B represents an MIC between 1 and 16 μg/mL inclusive) | < 100 | C (C represents an MIC of <1 μg/mL) | C (C represents an MIC of <1 μg/mL) | 100 to 1000 | < 100 | < 100
